Laboratory results from patent US8093221B2, “Cosmetic and pharmaceutical compositions comprising lauroyl proline and an ester of anhydrohexitol and of an aliphatic carboxylic acid” (Societe d'Exploitation de Produits pour les Industries …, priority 2005, dated 2012).

Assay: Tests for dissolving the composition in liquid media (water, liquid paraffin, propylene glycol)
Format: physicochemical
Conditions: 0.75% by mass of N-lauroyl proline (Composition 3 at 3% by mass)
Procedure: Composition 3 prepared in the above paragraph is dissolved in water, in liquid paraffin and in propylene glycol, at a proportion of 3% by mass, which corresponds to 0.75% by mass of N-lauroyl proline.

For `CCCCCCCCCCCC(=O)N1CCC[C@H]1C(=O)O` [Pure N-lauroyl proline, N-lauroyl proline], the “Temperature at which dispersible in liquid paraffin” value (liquid paraffin) was “dispersible at 70 °C”, the “Temperature at which dispersible in propylene glycol” value (propylene glycol) was “dispersible at 60 °C” and the “Temperature at which dispersible in water” value (water) was “dispersible at 80 °C”.
